# Test results published in patent US20120225862A1, “HETEROARYL BENZAMIDES, COMPOSITIONS AND METHODS OF USE” (AUCKLAND UNIVSERVICES LIMITED, priority 2009, published 2012).
# Experiments:
# [1] = test system: RCC4; experiment: XTT IC50 / viability assay, RCC4 cells; type: cell-based, human; conditions: Homo sapiens, RCC4, 96 h; XTT assay, four days
# Protocol: (§1) RCC4 parental and RCC4 with VHL-reintroduced (RCC4/VHL), SN12C and SN12C-CSCG-VHL shRNA were maintained in DMEM supplemented with 10% FCS.
# (§2) IC50 values for compounds were determined by XTT assay. For 2,3-bis[2-methoxy-4-nitro-5-sulfophenyl]-2H-tetrazolium-5-carboxanilide inner salt (XTT) assays, five thousand cells were plated in 96-well plates. The next day, vehicle or drug was added to each well and incubated for four days. Media was aspirated and phenol red-free medium with 0.3 mg/mL XTT and 2.65 ug/mL N-methyl dibenzopyrazine methyl sulfate was added. This was incubated at 37° C. for 1-2 hours and absorbance was read at 450 nm. IC50 values for each compound were calculated using linear interpolation.
# (§3) For 2,3-bis[2-methoxy-4-nitro-5-sulfophenyl]-2H-tetrazolium-5-carboxanilide (XTT) assays, five thousand cells were plated in 96-well plates. The next day, vehicle (DMSO) or drug was added by serial dilution. Four days later, media were aspirated, XTT solution (0.3 mg/ml of XTT (Sigma), 2.65 mg/ml N-methyl dibenxopyrazine methyl sulfate (Simga) in phenol red-free media) was added, and the plates were incubated at 37° C. for 1-2 hours. Metabolism of XTT was quantified by measuring the absorbance at 450 nm. IC50s were calculated using linear interpolation. For clonogenic survival assays, three hundred cells were plated per 60 mm tissue culture dish. The cells were allowed to attach overnight and then treated with vehicle or drug for 14 days. Colonies were fixed and stained with crystal violet (0.1% crystal violet in 95% ethanol). All conditions were measured in triplicate and each experiment was done in duplicate or triplicate. To determine necrosis, cells were treated with drug for a given time point. Media and cells were collected, centrifugated, and resuspended in 0.4% trypan blue (Invitrogen). Live and dead cells were counted on a hematocytometer.
# [2] = test system: RCC4/VHL; experiment: XTT IC50 assay, selectivity RCC4 versus RCC4 with VHL-reintroduced; type: cell-based, human; conditions: selectivity ratio of XTT IC50 values, RCC4 vs RCC4/VHL
# Protocol: as §1, §2, §3
structure (smiles),measurement,setting,value
"COc1ccc(S(=O)(=O)NCc2ccc(C(=O)Nc3cccnc3)cc2)cc1 [Example 33, 4-((4-Methoxyphenylsulfonamido)methyl)-N-(pyridin-3-yl)benzamide]",IC50,[1],1000 to 20000 nM
same,Ratio (RCC4:RCC/VHL),[2],b (“b” reflects from 10 to 100)
"CCCCOc1ccc(S(=O)(=O)NCc2ccc(C(=O)Nc3cccnc3)cc2)cc1 [Example 34, 4-((4-Butoxyphenylsulfonamido)methyl)-N-(pyridin-3-yl)benzamide]",IC50,[1],< 1000 nM
same,Ratio (RCC4:RCC/VHL),[2],b (“b” reflects from 10 to 100)
"O=C(Nc1cccnc1)c1ccc(CNS(=O)(=O)c2ccc(Oc3ccccc3)cc2)cc1 [Example 35, 4-((4-Phenoxyphenylsulfonamido)methyl)-N-(pyridin-3-yl)benzamide]",IC50,[1],1000 to 20000 nM
same,Ratio (RCC4:RCC/VHL),[2],b (“b” reflects from 10 to 100)
"Cc1ccc(S(=O)(=O)NCc2ccc(C(=O)Nc3cccnc3)cc2)cc1 [Example 36, 4-((4-Methylphenylsulfonamido)methyl)-N-(pyridin-3-yl)benzamide]",IC50,[1],1000 to 20000 nM
same,Ratio (RCC4:RCC/VHL),[2],b (“b” reflects from 10 to 100)
"CCCc1ccc(S(=O)(=O)NCc2ccc(C(=O)Nc3cccnc3)cc2)cc1 [Example 37, 4-((4-Propylphenylsulfonamido)methyl)-N-(pyridin-3-yl)benzamide]",IC50,[1],< 1000 nM
same,Ratio (RCC4:RCC/VHL),[2],b (“b” reflects from 10 to 100)
"CC(=O)Nc1ccc(S(=O)(=O)NCc2ccc(C(=O)Nc3cccnc3)cc2)cc1 [Example 42, 4-((4-Acetamidophenylsulfonamido)methyl)-N-(pyridin-3-yl)benzamide]",IC50,[1],1000 to 20000 nM
same,Ratio (RCC4:RCC/VHL),[2],a (“a” reflects a ratio of RCC4/RCC-VHL+ ranging from 1 to 10)
"O=C(Nc1cccnc1)c1ccc(CNS(=O)(=O)c2ccc(F)cc2)cc1 [Example 43, 4-((4-Fluorophenylsulfonamido)methyl)-N-(pyridin-3-yl)benzamide]",IC50,[1],1000 to 20000 nM
same,Ratio (RCC4:RCC/VHL),[2],a (“a” reflects a ratio of RCC4/RCC-VHL+ ranging from 1 to 10)
"O=C(Nc1cccnc1)c1ccc(CNS(=O)(=O)c2ccc(Cl)cc2)cc1 [Example 44, 4-((4-Chlorophenylsulfonamido)methyl)-N-(pyridin-3-yl)benzamide]",IC50,[1],1000 to 20000 nM
same,Ratio (RCC4:RCC/VHL),[2],b (“b” reflects from 10 to 100)
"O=C(Nc1cccnc1)c1ccc(CNS(=O)(=O)c2ccc(Br)cc2)cc1 [Example 45, 4-((4-Bromophenylsulfonamido)methyl)-N-(pyridin-3-yl)benzamide]",IC50,[1],1000 to 20000 nM
same,Ratio (RCC4:RCC/VHL),[2],b (“b” reflects from 10 to 100)
"O=C(Nc1cccnc1)c1ccc(CNS(=O)(=O)c2ccc(OC(F)(F)F)cc2)cc1 [Example 46, N-(Pyridin-3-yl)-4-((4-(trifluoromethoxy)phenylsulfonamido)methyl)benzamide]",IC50,[1],1000 to 20000 nM
same,Ratio (RCC4:RCC/VHL),[2],b (“b” reflects from 10 to 100)
"CC(=O)c1ccc(S(=O)(=O)NCc2ccc(C(=O)Nc3cccnc3)cc2)cc1 [Example 48, 4-((4-Acetylphenylsulfonamido)methyl)-N-(pyridin-3-yl)benzamide]",IC50,[1],< 1000 nM
same,Ratio (RCC4:RCC/VHL),[2],b (“b” reflects from 10 to 100)
"O=C(Nc1cccnc1)c1ccc(CNS(=O)(=O)c2ccc(C(F)(F)F)cc2)cc1 [Example 49, N-(Pyridin-3-yl)-4-((4-(trifluoromethyl)phenylsulfonamido)methyl)benzamide]",IC50,[1],1000 to 20000 nM
same,Ratio (RCC4:RCC/VHL),[2],a (“a” reflects a ratio of RCC4/RCC-VHL+ ranging from 1 to 10)
"N#Cc1ccc(S(=O)(=O)NCc2ccc(C(=O)Nc3cccnc3)cc2)cc1 [Example 50, 4-((4-Cyanophenylsulfonamido)methyl)-N-(pyridin-3-yl)benzamide]",IC50,[1],1000 to 20000 nM
same,Ratio (RCC4:RCC/VHL),[2],a (“a” reflects a ratio of RCC4/RCC-VHL+ ranging from 1 to 10)
"COc1ccc(-c2ccc(S(=O)(=O)NCc3ccc(C(=O)Nc4cccnc4)cc3)cc2)cc1 [Example 52, 4-({[(4′-Methoxy[1,1′-biphenyl]-4-yl)sulfonyl]amino}methyl)-N-(3-pyridinyl)benzamide]",IC50,[1],1000 to 20000 nM
same,Ratio (RCC4:RCC/VHL),[2],b (“b” reflects from 10 to 100)
"Cc1ccc(-c2ccc(S(=O)(=O)NCc3ccc(C(=O)Nc4cccnc4)cc3)cc2)cc1 [Example 53, 4-({[(4′-Methyl[1,1′-biphenyl]-4-yl)sulfonyl]amino}methyl)-N-(3-pyridinyl)benzamide]",IC50,[1],1000 to 20000 nM
same,Ratio (RCC4:RCC/VHL),[2],a (“a” reflects a ratio of RCC4/RCC-VHL+ ranging from 1 to 10)
"O=C(Nc1cccnc1)c1ccc(CNS(=O)(=O)c2ccc(-c3ccccc3)cc2)cc1 [Example 54, 4-((Biphenyl-4-ylsulfonamido)methyl)-N-(pyridin-3-yl)benzamide]",IC50,[1],1000 to 20000 nM
same,Ratio (RCC4:RCC/VHL),[2],b (“b” reflects from 10 to 100)
"O=C(Nc1cccnc1)c1ccc(CNS(=O)(=O)c2ccc(-c3ccc(F)cc3)cc2)cc1 [Example 55, 4-({[(4′-Fluoro[1,1′-biphenyl]-4-yl)sulfonyl]amino}methyl)-N-(3-pyridinyl)benzamide]",IC50,[1],< 1000 nM
same,Ratio (RCC4:RCC/VHL),[2],b (“b” reflects from 10 to 100)
"O=C(Nc1cccnc1)c1ccc(CNS(=O)(=O)c2ccc(-c3ccc(Cl)cc3)cc2)cc1 [Example 56, 4-({[(4′-Chloro[1,1′-biphenyl]-4-yl)sulfonyl]amino}methyl)-N-(3-pyridinyl)benzamide]",IC50,[1],1000 to 20000 nM
same,Ratio (RCC4:RCC/VHL),[2],b (“b” reflects from 10 to 100)
"O=C(Nc1cccnc1)c1ccc(CNS(=O)(=O)c2ccc(-c3ncccn3)cc2)cc1 [Example 57, 4-[({[4-(2-Pyrimidinyl)phenyl]sulfonyl}amino)methyl]-N-(3-pyridinyl)-benzamide]",IC50,[1],< 1000 nM
same,Ratio (RCC4:RCC/VHL),[2],b (“b” reflects from 10 to 100)
"O=C(Nc1cccnc1)c1ccc(CNS(=O)(=O)c2ccc(-n3cccn3)cc2)cc1 [Example 58, 4-[({[4-(1H-Pyrazol-1-yl)phenyl]sulfonyl}amino)methyl]-N-(3-pyridinyl)benzamide]",IC50,[1],1000 to 20000 nM
same,Ratio (RCC4:RCC/VHL),[2],a (“a” reflects a ratio of RCC4/RCC-VHL+ ranging from 1 to 10)
"Cc1nc(-c2ccc(S(=O)(=O)NCc3ccc(C(=O)Nc4cccnc4)cc3)cc2)cs1 [Example 59, 4-[({[4-(2-Methyl-1,3-thiazol-4-yl)phenyl]sulfonyl}amino)methyl]-N-(3-pyridinyl)benzamide]",IC50,[1],1000 to 20000 nM
same,Ratio (RCC4:RCC/VHL),[2],b (“b” reflects from 10 to 100)
"O=C(Nc1cccnc1)c1ccc(CNS(=O)(=O)c2ccc(-c3cnco3)cc2)cc1 [Example 60, 4-[({[4-(1,3-Oxazol-5-yl)phenyl]sulfonyl}amino)methyl]-N-(3-pyridinyl)benzamide]",IC50,[1],< 1000 nM
same,Ratio (RCC4:RCC/VHL),[2],b (“b” reflects from 10 to 100)
"COc1ccc(S(=O)(=O)NCc2ccc(C(=O)Nc3cccnc3)cc2)cc1OC [Example 61, 4-((3,4-Dimethoxyphenylsulfonamido)methyl)-N-(pyridin-3-yl)benzamide]",IC50,[1],< 1000 nM
same,Ratio (RCC4:RCC/VHL),[2],c (“c” reflects a ratio of >100)
"COc1ccc(S(=O)(=O)NCc2ccc(C(=O)Nc3cccnc3)cc2)cc1C(C)(C)C [Example 62, 4-((3-tert-Butyl-4-methoxyphenylsulfonamido)methyl)-N-(pyridin-3-yl)benzamide]",IC50,[1],< 1000 nM
same,Ratio (RCC4:RCC/VHL),[2],c (“c” reflects a ratio of >100)
"Cc1c(C)c(C)c(S(=O)(=O)NCc2ccc(C(=O)Nc3cccnc3)cc2)c(C)c1C [Example 63, 4-((2,3,4,5,6-Pentamethylphenylsulfonamido)methyl)-N-(pyridin-3-yl)benzamide]",IC50,[1],< 1000 nM
same,Ratio (RCC4:RCC/VHL),[2],b (“b” reflects from 10 to 100)
"Cc1ccc(S(=O)(=O)NCc2ccc(C(=O)Nc3cccnc3)cc2)c(C)c1 [Example 64, 4-((2,4-Dimethylphenylsulfonamido)methyl)-N-(pyridin-3-yl)benzamide]",IC50,[1],1000 to 20000 nM
same,Ratio (RCC4:RCC/VHL),[2],a (“a” reflects a ratio of RCC4/RCC-VHL+ ranging from 1 to 10)
"Cc1ccc(S(=O)(=O)NCc2ccc(C(=O)Nc3cccnc3)cc2)cc1C [Example 65, 4-((3,4-Dimethylphenylsulfonamido)methyl)-N-(pyridin-3-yl)benzamide]",IC50,[1],< 1000 nM
same,Ratio (RCC4:RCC/VHL),[2],c (“c” reflects a ratio of >100)
"Cc1cc(C)cc(S(=O)(=O)NCc2ccc(C(=O)Nc3cccnc3)cc2)c1 [Example 66, 4-((3,5-Dimethylphenylsulfonamido)methyl)-N-(pyridin-3-yl)benzamide]",IC50,[1],< 1000 nM
same,Ratio (RCC4:RCC/VHL),[2],c (“c” reflects a ratio of >100)
"Cc1ccc(S(=O)(=O)NCc2ccc(C(=O)Nc3cccnc3)cc2)cc1F [Example 67, 4-((3-Fluoro-4-methylphenylsulfonamido)methyl)-N-(pyridin-3-yl)benzamide]",IC50,[1],< 1000 nM
same,Ratio (RCC4:RCC/VHL),[2],c (“c” reflects a ratio of >100)
"Cc1ccc(S(=O)(=O)NCc2ccc(C(=O)Nc3cccnc3)cc2)cc1Cl [Example 69, 4-((3-Chloro-4-methylphenylsulfonamido)methyl)-N-(pyridin-3-yl)benzamide]",IC50,[1],< 1000 nM
same,Ratio (RCC4:RCC/VHL),[2],b (“b” reflects from 10 to 100)
